The source of these data is patent publication EP3782997A1, “FUSED PYRIMIDINE COMPOUNDS AND PHARMACEUTICAL COMPOSITIONS THEREOF FOR THE TREATMENT OF FIBROTIC DISEASES” (Galapagos N.V., priority 2019, dated 2021).

As usually defined, the IC50 is the point on the concentration scale where inhibition reaches its midpoint. Higher therefore signals a need for much substance.

The target of this assay is hENPP2 (Homo sapiens, UniProt Q13822). The experiment in a line: Human ENPP2 (hENPP2) biochemical assay using LPC as substrate. To be noted: 150 µM LPC (palmitoyl 16:0), 37°C for 30 min. In outline: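 Enzyme at 1 or 3 µg/mL final in Tris-HCl pH 8.5, NaCl, KCl, CaCl2, fatty-acid-free BSA; reaction started with 150 µM LPC 16:0 (as added), 30 min at 37°C. Released choline developed with choline oxidase/peroxidase/TOOS/4-aminoantipyrine plus EGTA stop, read at 555 nm after 30 min; 1/3 dilutions from 50 µM give IC50.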
`Cc1cc(C)cc(Nc2ncc3c(n2)CN(C2CCN(C(=O)c4ccc5[nH]c(=O)oc5c4)C(C)C2)C3)c1` (centres unmarked) [compound 35, 6-[4-[2-(3,5-dimethylanilino)-5,7-dihydropyrrolo[3,4-d]pyrimidin-6-yl]-2-methyl-piperidine-1-carbonyl]-3H-1,3-benzoxazol-2-one] yielded an IC50 of 0.01 to 100 nM.

Take `Cc1cc(C)cc(Nc2ncc3c(n2)CN(C2CCN(C(=O)c4ccc5[nH]nnc5c4)CC2(F)F)C3)c1` (centres unmarked) [compound 37, 1H-benzotriazol-5-yl-[4-[2-(3,5-dimethylanilino)-5,7-dihydropyrrolo[3,4-d]pyrimidin-6-yl]-3,3-difluoro-1-piperidyl]methanone]: the IC50 lay within 0.01 to 100 nM.

For `Cc1cc(C)cc(Nc2ncc3c(n2)CN(C2CN(C(=O)c4ccc(S(N)(=O)=O)cc4)C2)C3)c1` [compound 38, 4-[3-[2-(3,5-dimethylanilino)-5,7-dihydropyrrolo[3,4-d]pyrimidin-6-yl]azetidine-1-carbonyl]benzenesulfonamide], the IC50 was in the range of 100 to 500 nM.

Take `Cc1cc(C)cc(Nc2ncc3c(n2)CN(C2CCCN(C(=O)c4ccc5[nH]c(=O)oc5c4)C2)C3)c1` (centres unmarked) [compound 39, 6-[3-[2-(3,5-dimethylanilino)-5,7-dihydropyrrolo[3,4-d]pyrimidin-6-yl]piperidine-1-carbonyl]-3H-1,3-benzoxazol-2-one]: the IC50 is over 1000 nM.

Molecule `Cc1cc(C)cc(Nc2ncc3c(n2)CN(C2CCN(C(=O)c4ccc5[nH]nnc5c4)CC2F)C3)c1` (centres unmarked) [compound 40, 1H-benzotriazol-5-yl-[4-[2-(3,5-dimethylanilino)-5,7-dihydropyrrolo[3,4-d]pyrimidin-6-yl]-3-fluoro-1-piperidyl]methanone] came in with an IC50 of 0.01 to 100 nM.

As to `Cc1cc(C)cc(Nc2ncc3c(n2)CN(C2CC4(C2)CN(C(=O)c2ccc5[nH]nnc5c2)C4)C3)c1` [compound 41, 1H-benzotriazol-5-yl-[6-[2-(3,5-dimethylanilino)-5,7-dihydropyrrolo[3,4-d]pyrimidin-6-yl]-2-azaspiro[3.3]heptan-2-yl]methanone], the IC50 was 500 to 1000 nM.

`COc1cc(Nc2ncc3c(n2)CN(C2CCN(C(=O)c4ccc5[nH]nnc5c4)C2)C3)cc(OC)c1` (centres unmarked) [compound 42, 1H-benzotriazol-5-yl-[3-[2-(3,5-dimethoxyanilino)-5,7-dihydropyrrolo[3,4-d]pyrimidin-6-yl]pyrrolidin-1-yl]methanone] had an IC50 of 100 to 500 nM.

Molecule `Cc1cncc(Nc2ncc3c(n2)CN(C2CN(C(=O)c4ccc5[nH]nnc5c4)C2)C3)c1` [compound 43, 1H-benzotriazol-5-yl-[3-[2-[(5-methyl-3-pyridyl)amino]-5,7-dihydropyrrolo[3,4-d]pyrimidin-6-yl]azetidin-1-yl]methanone] had an IC50 of 500 to 1000 nM.

As for `Cc1cncc(Nc2ncc3c(n2)CN(C2CCN(C(=O)c4ccc5[nH]nnc5c4)C2)C3)c1` (centres unmarked) [compound 44, 1H-benzotriazol-5-yl-[3-[2-[(5-methyl-3-pyridyl)amino]-5,7-dihydropyrrolo[3,4-d]pyrimidin-6-yl]pyrrolidin-1-yl]methanone], the IC50 is over 1000 nM.

`Cc1cncc(Nc2ncc3c(n2)CN(C2CCN(C(=O)c4ccc(S(N)(=O)=O)cc4)C2)C3)c1` (centres unmarked) [compound 45, 4-[3-[2-[(5-methyl-3-pyridyl)amino]-5,7-dihydropyrrolo[3,4-d]pyrimidin-6-yl]pyrrolidine-1-carbonyl]benzenesulfonamide] registered an IC50 of over 1000 nM.

In the case of `Cn1nc(C(C)(C)C)cc1Nc1ncc2c(n1)CN(C1CN(C(=O)c3ccc4[nH]nnc4c3)C1)C2` [compound 46, 1H-benzotriazol-5-yl-[3-[2-[(5-tert-butyl-2-methyl-pyrazol-3-yl)amino]-5,7-dihydropyrrolo[3,4-d]pyrimidin-6-yl]azetidin-1-yl]methanone], the IC50 was over 1000 nM.

Molecule `Cc1cncc(Nc2ncc3c(n2)CN(C2CCN(C(=O)c4ccc(S(N)(=O)=O)cc4)CC2)C3)c1` [compound 47, 4-[4-[2-[(5-methyl-3-pyridyl)amino]-5,7-dihydropyrrolo[3,4-d]pyrimidin-6-yl]piperidine-1-carbonyl]benzenesulfonamide] registered an IC50 of over 1000 nM.

For the molecule `Cc1cncc(Nc2ncc3c(n2)CN(C2CN(C(=O)c4ccc(S(N)(=O)=O)cc4)C2)C3)c1` [compound 48, 4-[3-[2-[(5-methyl-3-pyridyl)amino]-5,7-dihydropyrrolo[3,4-d]pyrimidin-6-yl]azetidine-1-carbonyl]benzenesulfonamide], the IC50 was over 1000 nM.

As to `Cc1cncc(Nc2ncc3c(n2)CN(C2CCN(C(=O)c4ccc5[nH]nnc5c4)CC2)C3)c1` [compound 49, 1H-benzotriazol-5-yl-[4-[2-[(5-methyl-3-pyridyl)amino]-5,7-dihydropyrrolo[3,4-d]pyrimidin-6-yl]-1-piperidyl]methanone], the IC50 lay in the range of 500 to 1000 nM.

Regarding `Cn1nc(C(C)(C)C)cc1Nc1ncc2c(n1)CN(C1CCN(C(=O)c3ccc4[nH]nnc4c3)CC1)C2` [compound 50, 1H-benzotriazol-5-yl-[4-[2-[(5-tert-butyl-2-methyl-pyrazol-3-yl)amino]-5,7-dihydropyrrolo[3,4-d]pyrimidin-6-yl]-1-piperidyl]methanone], the IC50 was over 1000 nM.

Molecule `Cc1cc(C)nc(Nc2ncc3c(n2)CN(C2CN(C(=O)c4ccc5[nH]nnc5c4)C2)C3)c1` [compound 51, 1H-benzotriazol-5-yl-[3-[2-[(4,6-dimethyl-2-pyridyl)amino]-5,7-dihydropyrrolo[3,4-d]pyrimidin-6-yl]azetidin-1-yl]methanone] had an IC50 of 500 to 1000 nM.

With `Cc1cc(C)nc(Nc2ncc3c(n2)CN(C2CN(C(=O)c4ccc5[nH]c(=O)oc5c4)C2)C3)c1` [compound 52, 6-[3-[2-[(4,6-dimethyl-2-pyridyl)amino]-5,7-dihydropyrrolo[3,4-d]pyrimidin-6-yl]azetidine-1-carbonyl]-3H-1,3-benzoxazol-2-one], the IC50 lay within 100 to 500 nM.

In turn, `O=C(c1ccc2[nH]nnc2c1)N1CC(N2Cc3cnc(Nc4cc(F)cc(F)c4)nc3C2)C1` [compound 53, 1H-benzotriazol-5-yl-[3-[2-(3,5-difluoroanilino)-5,7-dihydropyrrolo[3,4-d]pyrimidin-6-yl]azetidin-1-yl]methanone] came in with an IC50 of 100 to 500 nM.

The molecule `O=C(c1ccc2[nH]nnc2c1)N1CCC(N2Cc3cnc(Nc4cc(F)cc(F)c4)nc3C2)CC1` [compound 54, 1H-benzotriazol-5-yl-[4-[2-(3,5-difluoroanilino)-5,7-dihydropyrrolo[3,4-d]pyrimidin-6-yl]-1-piperidyl]methanone] yielded an IC50 of 100 to 500 nM.

`O=C(c1ccc2[nH]c(=O)oc2c1)N1CCC(N2Cc3cnc(Nc4cc(F)cc(F)c4)nc3C2)CC1` [compound 55, 6-[4-[2-(3,5-difluoroanilino)-5,7-dihydropyrrolo[3,4-d]pyrimidin-6-yl]piperidine-1-carbonyl]-3H-1,3-benzoxazol-2-one] had an IC50 of 100 to 500 nM.

For the molecule `Cc1cc(C)nc(Nc2ncc3c(n2)CN(C2CCN(C(=O)c4ccc5nn[nH]c5c4)CC2)C3)c1` [compound 56, 3H-benzotriazol-5-yl-[4-[2-[(4,6-dimethyl-2-pyridyl)amino]-5,7-dihydropyrrolo [3,4-d]pyrimidin-6-yl]-1-piperidyl]methanone], the IC50 was over 1000 nM.

Molecule `O=C(c1ccc2[nH]c(=O)oc2c1)N1CC(N2Cc3cnc(Nc4cc(F)cc(F)c4)nc3C2)C1` [compound 57, 6-[3-[2-(3,5-difluoroanilino)-5,7-dihydropyrrolo[3,4-d]pyrimidin-6-yl]azetidine-1-carbonyl]-3H-1,3-benzoxazol-2-one] had an IC50 of 0.01 to 100 nM.

As to `N#Cc1ccc(Nc2ncc3c(n2)CN(C2CN(C(=O)c4ccc5[nH]nnc5c4)C2)C3)cc1` [compound 58, 4-[[6-[1-(1H-benzotriazole-5-carbonyl)azetidin-3-yl]-5,7-dihydropyrrolo[3,4-d]pyrimidin-2-yl]amino]benzonitrile], the IC50 is 0.01 to 100 nM.

`N#Cc1ccc(Nc2ncc3c(n2)CN(C2CCN(C(=O)c4ccc5[nH]nnc5c4)CC2)C3)cc1` [compound 59, 4-[[6-[1-(1H-benzotriazole-5-carbonyl)-4-piperidyl]-5,7-dihydropyrrolo[3,4-d]pyrimidin-2-yl]amino]benzonitrile] registered an IC50 of 0.01 to 100 nM.

`Cc1cc(C)cc(Nc2ncc3c(n2)CN(C2CCN(C(=O)c4ccc5[nH]c(=S)oc5c4)CC2)C3)c1` [compound 61, [4-[2-(3,5-dimethylanilino)-5,7-dihydropyrrolo[3,4-d]pyrimidin-6-yl]-1-piperidyl]-(2-thioxo-3H-1,3-benzoxazol-6-yl)methanone] showed an IC50 of 0.01 to 100 nM.

Take `Cc1cc(C)cc(Nc2ncc3c(n2)CN(C2CN(C(=O)c4ccc5[nH]c(=S)oc5c4)C2)C3)c1` [compound 62, [3-[2-(3,5-dimethylanilino)-5,7-dihydropyrrolo[3,4-d]pyrimidin-6-yl]azetidin-1-yl]-(2-thioxo-3H-1,3-benzoxazol-6-yl)methanone]: the IC50 lay within 0.01 to 100 nM.

The molecule `Cc1cc(C)cc(Nc2ncc3c(n2)CN(C2CC4CC2CN4C(=O)c2ccc4[nH]nnc4c2)C3)c1` (centres unmarked) [compound 63, 1H-benzotriazol-5-yl-[5-[2-(3,5-dimethylanilino)-5,7-dihydropyrrolo[3,4-d]pyrimidin-6-yl]-2-azabicyclo[2.2.1]heptan-2-yl]methanone] yielded an IC50 of over 1000 nM.

Molecule `Cc1cc(C)cc(Nc2ncc3c(n2)CN(C2CC4CC2CN4C(=O)c2ccc4[nH]c(=O)oc4c2)C3)c1` (centres unmarked) [compound 64, 6-[5-[2-(3,5-dimethylanilino)-5,7-dihydropyrrolo[3,4-d]pyrimidin-6-yl]-2-azabicyclo[2.2.1]heptane-2-carbonyl]-3H-1,3-benzoxazol-2-one] showed an IC50 of over 1000 nM.

As for `Cc1cc(C)cc(Nc2ncc3c(n2)CN(C2CCN(C(=O)c4cnc5[nH]nnc5c4)CC2C)C3)c1` (centres unmarked) [compound 65, [4-[2-(3,5-dimethylanilino)-5,7-dihydropyrrolo[3,4-d]pyrimidin-6-yl]-3-methyl-1-piperidyl]-(3H-triazolo[4,5-b]pyridin-6-yl)methanone], the IC50 lay within 100 to 500 nM.
